Laboratory results reported in patent publication US10597388B2, “Pyridazinone herbicides” (FMC CORPORATION, priority 2014, dated 2020).

Tests used:
Type in all cases: in vivo
[1] = tested on: sedge, umbrella (small-flower umbrella sedge, Cyperus difformis); test: Test B flooded paddy test; settings: 250 g ai/ha, Flood; visual rating on scale of 0 to 100 where 0 is no effect and 100 is complete control; 13 to 15 d after treatment
Outline: (§1)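 Plants grown to the 2-leaf stage. At treatment, pots were flooded to 3 cm above the soil, compound was applied directly to the paddy water, and that depth was held throughout. After 13 to 15 d in the greenhouse, response was rated visually against controls on a 0 (no effect) to 100 (complete control) scale.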

[2] = tested on: ducksalad (Heteranthera limosa); test: Test B flooded paddy test; settings: 250 g ai/ha, Flood; visual rating on scale of 0 to 100 where 0 is no effect and 100 is complete control; 13 to 15 d after treatment
Outline: as §1

rice (Oryza sativa) = test: Test B flooded paddy test; settings: 250 g ai/ha, Flood; visual rating on scale of 0 to 100 where 0 is no effect and 100 is complete control; 13 to 15 d after treatment
Outline: as §1

[3] = tested on: barnyardgrass (Echinochloa crus-galli); test: Test B flooded paddy test; settings: 250 g ai/ha, Flood; visual rating on scale of 0 to 100 where 0 is no effect and 100 is complete control; 13 to 15 d after treatment
Outline: as §1

[4] = tested on: galium (catchweed bedstraw, Galium aparine); test: Test A greenhouse herbicide test, postemergence
Outline: (§2)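 Pot-grown plants (loam soil/sand blend), 2–10 cm tall at the one- to two-leaf stage, received postemergence sprays of formulated test chemical. After about 10 d in the greenhouse, injury was rated visually against untreated controls on a 0 (no effect) to 100 (complete control) scale.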

[5] = tested on: blackgrass (Alopecurus myosuroides); test: Test A greenhouse herbicide test, postemergence
Outline: as §2

[6] = tested on: foxtail, giant (giant foxtail, Setaria faberii); test: Test A greenhouse herbicide test, pre- and postemergence
Outline: (§3)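 Seeds in loam–sand blend received a preemergence directed soil spray; plants at 2–10 cm, one- to two-leaf stage, received postemergence sprays. Compounds in a non-phytotoxic solvent with surfactant. After about 10 d in a greenhouse, injury rated visually versus untreated controls on a 0–100 scale (100 = complete control).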

corn (Zea mays) = test: as above; settings: Postemergence
Outline: as §3

kochia (Kochia scoparia) = test: as above
Outline: as §3

[7] = tested on: pigweed (Amaranthus retroflexus); test: as above
Outline: as §3

[8] = tested on: wheat (Triticum aestivum); test: as above; settings: Postemergence
Outline: as §3

[9] = tested on: barnyardgrass (Echinochloa crus-galli); test: as above
Outline: as §3

[10] = tested on: ragweed (common ragweed, Ambrosia elatior); test: as above
Outline: as §3

[11] = tested on: ryegrass, Italian (Italian ryegrass, Lolium multiflorum); test: as above
Outline: as §3

[12] = 125 g ai/ha, 0 to 100 scale where 0 is no effect and 100 is complete control
[13] = 500 g ai/ha, visual rating after approx. 10 d, 0 to 100 scale (0 no effect, 100 complete control)
[14] = Postemergence, 125 g ai/ha, 0 to 100 scale where 0 is no effect and 100 is complete control
[15] = Postemergence, 500 g ai/ha, visual rating after approx. 10 d, 0 to 100 scale (0 no effect, 100 complete control)
[16] = Preemergence, 125 g ai/ha, 0 to 100 scale where 0 is no effect and 100 is complete control
[17] = Preemergence, 500 g ai/ha, 0 to 100 scale where 0 is no effect and 100 is complete control

Row | SMILES | Plant response rating, Sedge, Umbrella [1] | Plant response rating, Ducksalad [2] | Plant response rating, Rice (rice (Oryza sativa)) | Plant response rating, Barnyardgrass [3] | Plant response rating, Galium [4, 12] | Plant response rating, Galium [4, 13] | Plant response rating, Blackgrass [5, 12] | Plant response rating, Blackgrass [5, 13] | Plant response rating, Foxtail, Giant [6, 14] | Plant response rating, Foxtail, Giant [6, 15] | Foxtail, Giant plant response rating [6, 16] | Plant response rating, Foxtail, Giant [6, 17] | Plant response rating, Corn (corn (Zea mays); [12]) | Plant response rating, Corn (corn (Zea mays); [13]) | Plant response rating, Kochia (kochia (Kochia scoparia); [14]) | Plant response rating, Kochia (kochia (Kochia scoparia); [15]) | Kochia plant response rating (kochia (Kochia scoparia); [16]) | Plant response rating, Kochia (kochia (Kochia scoparia); [17]) | Plant response rating, Pigweed [7, 14] | Plant response rating, Pigweed [7, 15] | also measured
1 | COc1nn(C)c(=O)c(-c2c(C)sc3ccc(Cl)cc23)c1OC(C)=O [Compound 122] | 0 | 0 | 0 | 0 | 60 | 70 | 30 | 40 | 40 | 60 | 30 | 70 | 0 | 20 | 40 | 70 | 30 | 70 | 30 | 70 | Pigweed plant response rating [7, 16]: 100; Plant response rating, Pigweed [7, 17]: 100; Plant response rating, Wheat [8, 12]: 0; Plant response rating, Wheat [8, 13]: 0; Plant response rating, Barnyardgrass [9, 14]: 20; Plant response rating, Barnyardgrass [9, 15]: 30; Barnyardgrass plant response rating [9, 16]: 0; Plant response rating, Barnyardgrass [9, 17]: 30; Plant response rating, Ragweed [10, 14]: 50; Plant response rating, Ragweed [10, 15]: 60; Plant response rating, Ragweed [10, 17]: 80; Plant response rating, Ryegrass, Italian [11, 14]: 50; Plant response rating, Ryegrass, Italian [11, 15]: 70; Ryegrass, Italian plant response rating [11, 16]: 70; Plant response rating, Ryegrass, Italian [11, 17]: 90
2 | Cc1ccc2ccccc2c1-c1c(OC(=O)C(C)(C)C)c(C#N)nn(C)c1=O [Compound 128] | 0 | 30 | 0 | 0 | 40 | 70 | 0 | 20 | 50 | 70 | 80 | 90 | 0 | 0 | 0 | 0 | 0 | 0 | 70 | 90 | Pigweed plant response rating [7, 16]: 90; Plant response rating, Pigweed [7, 17]: 100; Plant response rating, Wheat [8, 12]: 0; Plant response rating, Wheat [8, 13]: 0; Plant response rating, Barnyardgrass [9, 14]: 50; Plant response rating, Barnyardgrass [9, 15]: 80; Barnyardgrass plant response rating [9, 16]: 50; Plant response rating, Barnyardgrass [9, 17]: 90; Plant response rating, Ragweed [10, 14]: 10; Plant response rating, Ragweed [10, 15]: 30; Ragweed plant response rating [10, 16]: 70; Plant response rating, Ragweed [10, 17]: 70; Plant response rating, Ryegrass, Italian [11, 14]: 20; Plant response rating, Ryegrass, Italian [11, 15]: 50; Ryegrass, Italian plant response rating [11, 16]: 10; Plant response rating, Ryegrass, Italian [11, 17]: 30
